The text below walks through data of ChEMBL document CHEMBL6103591, “Discovery of naphthoquinone-furo-piperidone derivatives as dual targeting agents of STAT3 and NQO1 for the treatment of breast cancer” (Eur J Med Chem, 2025).

Data set [1] has as its system MDA-MB-231. The experiment in a line: Antitumor activity against human MDA-MB-231 cells xenografted in female BALB/c nude mouse assessed as tumor growth inhibition at 5 mg/kg, ip administered daily and measured every 2 days for 21 days relative to control. It counts as functional. The note with it: MDA-MB-231, 504 h, time 21 day, read-out: TGI. (A xenograft is tissue or cells of one species grown in another, often human tumour cells in immunodeficient mice.)

The subject of data set [2] is MDA-MB-231. The data set is described as follows: Antitumor activity against human MDA-MB-231 cells xenografted in female BALB/c nude mouse assessed as tumor growth inhibition at 10 mg/kg, ip administered daily and measured every 2 days for 21 days relative to control. It counts as functional. The settings on record: MDA-MB-231, 504 h, time 21 day, read-out: TGI.
Data set [3] is described as follows: Toxicity in female BALB/c nude mouse xenografted with human MDA-MB-231 cells assessed as body weight loss at 5 to 10 mg/kg, ip administered daily and measured every 2 days for 21 days. It counts as organism-based. The settings on record: in vivo, 504 h, dose 5-10 mg/kg, time 21 day.
Data set [4] can be described thus: Toxicity in female BALB/c nude mouse xenografted with human MDA-MB-231 cells assessed as morphological change in heart at 5 to 10 mg/kg, ip administered daily and measured every 2 days for 21 days by hematoxylin and eosin staining based analysis. Format: organism-based. The note with it: in vivo, 504 h, dose 5-10 mg/kg, time 21 day.
A short description of data set [5]: Toxicity in female BALB/c nude mouse xenografted with human MDA-MB-231 cells assessed as morphological change in liver at 5 to 10 mg/kg, ip administered daily and measured every 2 days for 21 days by hematoxylin and eosin staining based analysis. Format: organism-based. The settings on record: in vivo, 504 h, dose 5-10 mg/kg, time 21 day.
Data set [6] in a line: Toxicity in female BALB/c nude mouse xenografted with human MDA-MB-231 cells assessed as morphological change in kidney at 5 to 10 mg/kg, ip administered daily and measured every 2 days for 21 days by hematoxylin and eosin staining based analysis. Format: organism-based. The settings on record: in vivo, 504 h, dose 5-10 mg/kg, time 21 day.
Data set [7] in a line: Toxicity in female BALB/c nude mouse xenografted with human MDA-MB-231 cells assessed as morphological change in spleen at 5 to 10 mg/kg, ip administered daily and measured every 2 days for 21 days by hematoxylin and eosin staining based analysis. Format: organism-based. The note with it: in vivo, 504 h, dose 5-10 mg/kg, time 21 day.
A short description of data set [8]: Toxicity in female BALB/c nude mouse xenografted with human MDA-MB-231 cells assessed as morphological change in lung at 5 to 10 mg/kg, ip administered daily and measured every 2 days for 21 days by hematoxylin and eosin staining based analysis. Format: organism-based. The note with it: in vivo, 504 h, dose 5-10 mg/kg, time 21 day.
The test system of data set [9] is MDA-MB-231. The experiment in a line: Antiproliferative activity against human MDA-MB-231 cells assessed as reduction in cell viability incubated for 48 hrs by MTT assay. It counts as functional, cell-based. The note with it: MDA-MB-231, 48 h. (In general: Formazan colour is commonly taken as a measure of viable cells.)
Data set [10] concerns MDA-MB-468. The data set is described as follows: Antiproliferative activity against human MDA-MB-468 cells assessed as reduction in cell viability incubated for 48 hrs by MTT assay. It counts as functional, cell-based. The note with it: MDA-MB-468, 48 h.
Data set [11] addresses Signal transducer and activator of transcription 3 (Homo sapiens, UniProt P40763). The experiment in a line: Inhibition of STAT3 (unknown origin) activation transfected in HEK293 preincubated for 30 mins followed by IL-6 addition and measured after 24 hrs by luciferase reporter gene assay. It counts as cell-based. In general terms: In a reporter assay the amount or activity of a reporter protein is the signal.

The nature of data set [12]: Cytotoxicity against human MCF-10A cells. It counts as toxicity, cell-based.
The nature of data set [13]: Selectivity ratio of IC50 for cytotoxicity against human MCF-10A cells to IC50 for antiproliferative activity against human MDA-MB-231 cells. Format: toxicity, cell-based. The settings on record: MCF-10A cells versus MDA-MB-231 cells, read-out: Ratio IC50.
In data set [14] the test system is MDA-MB-231. The data set is described as follows: Induction of apoptosis in human MDA-MB-231 cells assessed as early apoptotic cells at 1.5 uM measured after 24 hrs by Annexin V/propidium iodide (PI) double staining based flow cytometric analysis (reference value: 1.98 %). Format: functional.
Data set [15] deals with MDA-MB-231. The data set is described as follows: Induction of apoptosis in human MDA-MB-231 cells assessed as late apoptotic cells at 1.5 uM measured after 24 hrs by Annexin V/propidium iodide (PI) double staining based flow cytometric analysis (reference value: 2.22 %). Format: functional.
Data set [16] relates to MDA-MB-231. The data set is described as follows: Induction of apoptosis in human MDA-MB-231 cells assessed as early apoptotic cells at 3 uM measured after 24 hrs by Annexin V/propidium iodide (PI) double staining based flow cytometric analysis (reference value: 1.98 %). Format: functional.
The subject of data set [17] is MDA-MB-231. The data set is described as follows: Induction of apoptosis in human MDA-MB-231 cells assessed as late apoptotic cells at 3 uM measured after 24 hrs by Annexin V/propidium iodide (PI) double staining based flow cytometric analysis (reference value: 2.22 %). Format: functional.
The test system of data set [18] is MDA-MB-468. The experiment in a line: Induction of apoptosis in human MDA-MB-468 cells assessed as early apoptotic cells at 1.5 uM measured after 24 hrs by Annexin V/propidium iodide (PI) double staining based flow cytometric analysis (reference value: 2.94 %). Format: functional.
Data set [19] has as its system MDA-MB-468. The experiment in a line: Induction of apoptosis in human MDA-MB-468 cells assessed as late apoptotic cells at 1.5 uM measured after 24 hrs by Annexin V/propidium iodide (PI) double staining based flow cytometric analysis (reference value: 2.24 %). Format: functional.
The test system of data set [20] is MDA-MB-468. The data set is described as follows: Induction of apoptosis in human MDA-MB-468 cells assessed as early apoptotic cells at 3 uM measured after 24 hrs by Annexin V/propidium iodide (PI) double staining based flow cytometric analysis (reference value: 2.94 %). It counts as functional.
The test system of data set [21] is MDA-MB-468. The experiment in a line: Induction of apoptosis in human MDA-MB-468 cells assessed as late apoptotic cells at 3 uM measured after 24 hrs by Annexin V/propidium iodide (PI) double staining based flow cytometric analysis (reference value: 2.24 %). Format: functional.
The subject of data set [22] is MDA-MB-231. The data set is described as follows: Induction of apoptosis in human MDA-MB-231 cells assessed as early apoptotic cells at 3 uM measured after 24 hrs by Annexin V/propidium iodide (PI) double staining based flow cytometric analysis (reference value: 1.99 %). Format: functional.
The test system of data set [23] is MDA-MB-231. The data set is described as follows: Induction of apoptosis in human MDA-MB-231 cells assessed as late apoptotic cells at 3 uM measured after 24 hrs by Annexin V/propidium iodide (PI) double staining based flow cytometric analysis (reference value: 1.84 %). It counts as functional.
Data set [24] has as its system MDA-MB-231. The experiment in a line: Induction of apoptosis in human MDA-MB-231 cells assessed as early apoptotic cells at 3 uM measured after 24 hrs in presence of Z-VAD-FMK by Annexin V/propidium iodide (PI) double staining based flow cytometric analysis (reference value: 1.99 %). It counts as functional.
In data set [25] the test system is MDA-MB-231. The data set is described as follows: Induction of apoptosis in human MDA-MB-231 cells assessed as late apoptotic cells at 3 uM measured after 24 hrs in presence of Z-VAD-FMK by Annexin V/propidium iodide (PI) double staining based flow cytometric analysis (reference value: 1.84 %). It counts as functional.
Data set [26] has as its system MDA-MB-468. The experiment in a line: Induction of apoptosis in human MDA-MB-468 cells assessed as early apoptotic cells at 3 uM measured after 24 hrs by Annexin V/propidium iodide (PI) double staining based flow cytometric analysis (reference value: 4.97 %). Format: functional.
Data set [27] concerns MDA-MB-468. The experiment in a line: Induction of apoptosis in human MDA-MB-468 cells assessed as late apoptotic cells at 3 uM measured after 24 hrs by Annexin V/propidium iodide (PI) double staining based flow cytometric analysis (reference value: 2.12 %). Format: functional.
The test system of data set [28] is MDA-MB-468. The experiment in a line: Induction of apoptosis in human MDA-MB-468 cells assessed as early apoptotic cells at 3 uM measured after 24 hrs in presence of Z-VAD-FMK by Annexin V/propidium iodide (PI) double staining based flow cytometric analysis (reference value: 4.97 %). Format: functional.
The subject of data set [29] is MDA-MB-468. The data set is described as follows: Induction of apoptosis in human MDA-MB-468 cells assessed as late apoptotic cells at 3 uM measured after 24 hrs in presence of Z-VAD-FMK by Annexin V/propidium iodide (PI) double staining based flow cytometric analysis (reference value: 2.12 %). Format: functional.
Another data set concerns MCF7. The data set is described as follows: Antiproliferative activity against human MCF7 cells incubated for 48 hrs by MTT assay. It counts as functional, cell-based. The note with it: MCF7, 48 h.

Chain of Signal transducer and activator of transcription 3 (P40763 whole entry): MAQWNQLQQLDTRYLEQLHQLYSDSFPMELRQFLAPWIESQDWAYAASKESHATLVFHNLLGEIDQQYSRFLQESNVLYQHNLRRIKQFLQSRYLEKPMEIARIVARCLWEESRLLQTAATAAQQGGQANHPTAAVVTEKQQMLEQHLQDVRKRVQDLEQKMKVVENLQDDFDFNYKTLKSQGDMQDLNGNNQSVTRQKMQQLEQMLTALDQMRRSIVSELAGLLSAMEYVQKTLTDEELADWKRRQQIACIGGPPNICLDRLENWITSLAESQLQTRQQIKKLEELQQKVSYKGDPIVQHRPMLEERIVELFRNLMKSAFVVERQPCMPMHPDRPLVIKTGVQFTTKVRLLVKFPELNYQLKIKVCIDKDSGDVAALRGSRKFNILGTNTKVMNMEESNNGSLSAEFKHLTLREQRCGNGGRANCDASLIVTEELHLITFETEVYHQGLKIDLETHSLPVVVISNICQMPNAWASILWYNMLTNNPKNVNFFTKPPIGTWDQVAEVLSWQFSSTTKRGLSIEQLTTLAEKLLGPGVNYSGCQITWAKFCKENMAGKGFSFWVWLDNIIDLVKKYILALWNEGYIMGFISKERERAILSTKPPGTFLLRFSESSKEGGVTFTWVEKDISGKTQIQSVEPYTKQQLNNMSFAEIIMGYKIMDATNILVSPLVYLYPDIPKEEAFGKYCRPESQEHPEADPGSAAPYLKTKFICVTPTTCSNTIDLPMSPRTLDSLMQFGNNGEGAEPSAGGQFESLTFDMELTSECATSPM

Regarding `Cl.O=C1C(=O)c2c(oc3c2CCN(CCN2CCCCC2)C3=O)-c2ccccc21`, the inhibition in vivo at 5 mg/kg in the data set with MDA-MB-231 [1] is 28.9%. Further, in the data set with MDA-MB-231 [2], the inhibition in vivo at 10 mg/kg worked out at 56.8%. Also, the Activity entry in data set [3], in data set [4], in data set [5], in data set [6], in [7] and in data set [8] was “Non-toxic” in each case.
For orientation: IC50 means the point on the concentration scale where inhibition reaches its midpoint. Turning to `O=C1C(=O)c2c(oc3c2CCN(CCN2CCCCC2)C3=O)-c2ccccc21`, the IC50 is 520 nM with MDA-MB-231 [9]; 1480 nM in the data set with MDA-MB-468 [10]; 400 nM in data set [11]; 3.33 µM in [12]; 1050 nM in the data set on MCF7. The selectivity ratio in [13] is roughly 6. For the same compound, the Activity with MDA-MB-231 [14] is on record as 2.31%; in the data set on MDA-MB-231 [15] it was 5.26%; in the data set on MDA-MB-231 [16], 2.94%; in the data set on MDA-MB-231 [17], 25.08%; in the data set on MDA-MB-468 [18], 7.36%; in the data set on MDA-MB-468 [19] it was 4.07%. Besides, the Activity is 14.73% with MDA-MB-468 [20]; 37.57% in the data set with MDA-MB-468 [21]; 8.01% in the data set with MDA-MB-231 [22]; 27.43% with MDA-MB-231 [23]; 4.67% with MDA-MB-231 [24]; 13.99% in the data set on MDA-MB-231 [25]. The Activity was determined as 17.75% with MDA-MB-468 [26], 52.62% in the data set with MDA-MB-468 [27], 9.18% with MDA-MB-468 [28] and 8.47% with MDA-MB-468 [29].
